Results on 19 compounds are retold here after patent publication US6444194B1, “Indium photosensitizers for PDT” (Miravant Pharmaceuticals, Inc., priority 1997, dated 2002).

The subject of data set [1] is BA mammary carcinoma. The data set can be described thus: In vivo assay of photosensitizers on tumors (PDT tumor cure). More on the design: species or system C3H/HeJ mice. To be noted: light dose 200 J/cm^2, n = 10. The method, then: Female C3H/HeJ mice (8-9 weeks old) were subjected to trochar implantation of BA mammary carcinoma on the hind leg of the animals. Animals having tumors ca 5 mm in diameter were entered into the in vivo screen. For each new photosensitizer, a group of at least three mice were used to ascertain a drug dose that caused a response as described in table 3 when treated with the appropriate wavelength of light. Generally in this series, animals were injected with 1 μ mole of sensitizer/Kg of body weight, formulated in egg yolk phosphatidate (EYP), via the tail vein. At a defined time period later the animals were irradiated with light from a laser source tuned to the wavelength of activation of the sensitizer. The power density of the laser was set at 75 mW/cm^2 with a total light dose of 200 J/cm^2.

Data set [2] can be described thus: Photophysical measurements of photosensitizers (λmax, ε, φ f). Format: physicochemical. More on the design: λmax: unit not given here. To be noted: for ε: at λmax; for λmax: band I absorption maximum.
Data set [3] deals with Chinese hamster lung fibroblasts (V-79). The data set can be described thus: DC(50)(light): colony-formation phototoxicity after laser irradiation. It counts as cell-based. As to conditions: V-79 cells; sensitizer incubation 16-24 hours; 12.5 mW/cm^2, total light dose 1.25 J/cm^2; concentration for lethal damage to 50% of cells. The protocol: For the Biological Evaluation, Chinese hamster lung fibroblasts (V-79) obtained from the American Tissue Culture Collection were grown in D-MEM supplemented with 10% fetal calf serum at 37° C., 5% CO2, and 95% humidity. These cells were used to evaluate the sensitizers for dark and light toxicity, and cellular uptake. Medium was replaced with 5% fetal calf serum supplemented medium during sensitizer incubations.
In the first phase, the combination of intracellular and extracellular concentration of photosensitizer required for lethal damage to 50% of the cells in culture (DC(50)) on light exposure was determined by plating cells at a density of 100 cells/cm^2 and incubating for 1-3 hours to allow attachment of the cells. Cells were incubated with various concentrations of sensitizer ([C]=0.01-1.0 μM) delivered in non-toxic concentrations of DMSO/5% dextrose solution or in some cases in egg yolk phosphatidase (EYP) for 16-24 hours. The cells were then irradiated with laser light using a tunable Lexel argon pumped dye laser at the band I absorption of the photosensitizer. Total power density was adjusted to 12.5 mW/cm^2 and a total light dose of 1.25 J/cm^2 was applied. After treatment, cells were washed with HBSS, refed with 10% FBS supplemented DMEM with phenol red and incubated for 3-5 days to allow colony formation. Cells were fixed in methanol, stained with Giemsa, and colonies were counted. Plating efficiency was determined using a control colony and the mean percent survival fraction plotted against the sensitizer concentration and the DC50 established (Table 5).

The mark [4] stands for this setting: drug dose 3 μm/Kg via tail vein in EYP, treatment 24 post injection.
Where [5] appears, read: drug dose 0.05 μm/Kg via tail vein in EYP, treatment 24 post injection.

A value given as a limit tells only on which side of the number the result lay.

`CCC1=C(CC)c2cc3[nH]c(c(CC)c3CC)c3cccc4c3nc(cc3[nH]c(cc1n2)c(CC)c3CC)C4(CC)CC` [Compound 1, Octaethylbenzochlorin]: in data set [1] (setting [4]), the “% Cure (30 days)” value is reported as 60%. Moreover, in data set [2], the φ f was determined as 0.347, the ε was 35,000 M^−1 cm^−1 and the λmax came out at 658. In addition, the IC50 in data set [3] was greater than 1000 nM.
For the compound `CCC1=C(CC)c2cc3[nH]c(c(CC)c3CC)c3cc(C)cc4c3nc(cc3[nH]c(cc1n2)c(CC)c3CC)C4(CC)CC` [Compound 3], the “% Cure (30 days)” value in data set [1] (drug dose 2.5 μm/Kg via tail vein in EYP, treatment 24 post injection) is on record as 60%. For the same compound, in data set [2], the φ f came out at 0.35, the ε is recorded as 35,000 M^−1 cm^−1 and the λmax was 658.
As for `CCC1=C(CC)C2=NC1=Cc1c(CC)c(CC)c3[n]1[Zn][n]1c(c(CC)c(CC)c1=c1cccc4c1=NC(=C3)C4(CC)CC)=C2` [Compound 4], in data set [1] (setting [4]), the “% Cure (30 days)” value worked out at 0%. For the same compound, in data set [2], the φ f is 0.150, the ε was 57,000 M^−1 cm^−1 and the λmax is listed as 678. In data set [3], the IC50 was greater than 1000 nM.
On to `CCC1=C(CC)C2=NC1=Cc1c(CC)c(CC)c3[n]1[In]([Cl])[n]1c(c(CC)c(CC)c1=c1cc(S(=O)(=O)NCCCO)cc4c1=NC(=C3)C4(CC)CC)=C2` [Compound 10, InOEBCSO2NH(CH2)3OH], for which the “% Cure (30 days)” value in data set [1] (drug dose 0.1 μm/Kg via tail vein in EYP, treatment 24 post injection) came out at 100%. In data set [2], the φ f is reported as 0.027, the ε is listed as 52,000 M^−1 cm^−1 and the λmax was 684. The IC50 in data set [3] lay within 100 to 125 nM.
For `CCC1=C(CC)C2=NC1=Cc1c(CC)c(CC)c3[n]1[In]([Cl])[n]1c(c(CC)c(CC)c1=c1cc(C)cc4c1=NC(=C3)C4(CC)CC)=C2` [Compound 11], the “% Cure (30 days)” value in data set [1] (drug dose 0.15 μm/Kg via tail vein in EYP, treatment 24 post injection) is listed as 90%. Besides, in data set [2], the φ f is on record as 0.034, the ε is on record as 54,000 M^−1 cm^−1 and the λmax is 687.
Consider `CCC1=C(CC)C2=NC1=Cc1c(CC)c(CC)c3[n]1[In]([Cl])[n]1c(c(CC)c(CC)c1=c1cc(S(=O)(=O)N(CCO)CCO)cc4c1=NC(=C3)C4(CC)CC)=C2` [Compound 12], for which the “% Cure (30 days)” value in data set [1] (setting [5]) was 90%. Besides, in data set [2], the φ f result is “˜0.03”, the ε is on record as 52,000 M^−1 cm^−1 and the λmax was 684. Also, the IC50 in data set [3] is 40 nM.
As for `CCC1=C(CC)C2=NC1=Cc1c(CC)c(CC)c3[n]1[In]([Cl])[n]1c(c(CC)c(CC)c1=c1cc(S(=O)(=O)NCCCCCO)cc4c1=NC(=C3)C4(CC)CC)=C2` [Compound 13], the “% Cure (30 days)” value in data set [1] (drug dose 0.075 μm/Kg via tail vein in EYP, treatment 24 post injection) is reported as 80%. In data set [2], the φ f result is given as “˜0.03”, the ε is 52,000 M^−1 cm^−1 and the λmax is on record as 684. In addition, the half-maximal inhibitory concentration (IC50) in data set [3] amounted to 40 nM.
Regarding `CCC1=C(CC)C2=NC1=Cc1c(CC)c(CC)c3[n]1[In]([Cl])[n]1c(c(CC)c(CC)c1=c1cc(S(=O)(=O)NCCN(C)C)cc4c1=NC(=C3)C4(CC)CC)=C2` [Compound 15], the “% Cure (30 days)” value in data set [1] (setting [5]) came to 100%. In data set [2], the φ f result was “˜0.03”, the ε is 52,000 M^−1 cm^−1 and the λmax was 684. In data set [3], the IC50 was 50 nM.
For `CCC1=C(CC)C2=NC1=Cc1c(CC)c(CC)c3[n]1[In]([Cl])[n]1c(c(CC)c(CC)c1=c1cc(S(=O)(=O)NCCOCCOCCOC)cc4c1=NC(=C3)C4(CC)CC)=C2` [Compound 16], in that order: 80%, “˜0.03”, 52,000 M^−1 cm^−1, 684 and 40 nM.
As to `CCC1=C(CC)C2=NC1=Cc1c(CC)c(CC)c3[n]1[In]([Cl])[n]1c(c(CC)c(CC)c1=c1cc(S(=O)(=O)NCCCS)cc4c1=NC(=C3)C4(CC)CC)=C2` [Compound 18], in data set [2], the φ f was found to be 0.03, the ε is recorded as 52,000 M^−1 cm^−1 and the λmax came out at 684. Further, the IC50 in data set [3] amounted to 40 nM.
`CCC1=C(CC)C2=NC1=Cc1c(CC)c(CC)c3[n]1[In]([Cl])[n]1c(c(CC)c(CC)c1=c1cc(S(=O)(=O)NC(CO)(CO)CO)cc4c1=NC(=C3)C4(CC)CC)=C2` [Compound 19, InOEBCSO2NHC(CH2OH)3]: in data set [2], the φ f was 0.03, the ε is on record as 52,000 M^−1 cm^−1 and the λmax was 684. Also, the IC50 in data set [3] was determined as 40 nM.
For `CCC1=C(CC)C2=NC1=Cc1c(CC)c(CC)c3[n]1[In]([Cl])[n]1c(c(CC)c(CC)c1=c1cc(S(=O)(=O)NCC(=O)O)cc4c1=NC(=C3)C4(CC)CC)=C2` [Compound 20], in data set [2], the ε was 52,000 M^−1 cm^−1 and the λmax is 684. Also, in data set [3], the 50% inhibitory concentration (IC50) worked out at 40 nM.
`CCC1=C(CC)C2=NC1=Cc1c(CC)c(CC)c3[n]1[In]([Cl])[n]1c(c(CC)c(CC)c1=c1cc(S(=O)(=O)NCCCCC(N)C(=O)O)cc4c1=NC(=C3)C4(CC)CC)=C2` (centres unmarked) [Compound 21, InOEBCSO2NH (CH2)4CH(NH2)CO2H]: in data set [2], the φ f amounted to 0.03, the ε was 52,000 M^−1 cm^−1 and the λmax came out at 684. Also, the IC50 in data set [3] was 40 nM.
On to `C=Cc1c(C)c2cc3nc(c4c5[nH]c(cc6nc(cc1[nH]2)C(C)=C6CC)c(C)c5C(=O)C4)[C@@H](CCC(=O)OC)[C@@H]3C` [Compound 22], for which the “% Cure (30 days)” value in data set [1] (drug dose 10.6 μm/Kg via tail vein in EYP, treatment 3 post injection) was 50%.
As to `C=Cc1c(C)c2[n]3c1=CC1=NC(=Cc4c(C)c5c([n]4[Sn]3([Cl])[Cl])C(=C3N=C(C=2)[C@@H](C)[C@@H]3CCC(=O)OC)CC5=O)C(CC)=C1C` [Compound 23], the “% Cure (30 days)” value in data set [1] (drug dose 2.0 μm/Kg via tail vein in EYP, treatment 24 or 6 post injection) is 0%. The 50% inhibitory concentration (IC50) in data set [3] was greater than 1000 nM.
Turning to `C=Cc1c(C)c2[n]3c1=CC1=NC(=Cc4c(C)c5c([n]4[In]3[Cl])C(=C3N=C(C=2)[C@@H](C)[C@@H]3CCC(=O)OC)CC5=O)C(CC)=C1C` [Compound 24], the “% Cure (30 days)” value in data set [1] (drug dose 0.2 μm/Kg via tail vein in EYP, treatment 6 or 8 post injection) came to 80%.
In the case of `CCC1=C(C)C2=NC1=Cc1c(C)c3c4[n]1[In]([Cl])[n]1c(c(C)c(C(C)=O)c1=C2)=CC1=NC(=C4CC3=O)[C@@H](CCC(=O)OC)[C@@H]1C` [Compound 26, Indium 2-desvinyl-2-acetyl pyropheophorbide], the “% Cure (30 days)” value in data set [1] (drug dose 0.125 μm/Kg via tail vein in EYP, treatment 8 post injection) is listed as 90%. Further, the λmax in data set [2] is 672. Besides, in data set [3], the IC50 was found to be 60 nM.
Regarding `CCC1=C(C)C2=NC1=Cc1c(C)c3c4[n]1[Pd][n]1c(c(C)c(C(C)=O)c1=C2)=CC1=NC(=C4CC3=O)[C@@H](CCC(=O)OC)[C@@H]1C` [Compound 28], the “% Cure (30 days)” value in data set [1] (drug dose 0.2 μm/Kg via tail vein in EYP, treatment 8 post injection) is reported as 80%. In data set [2], the λmax was 653. Further, in data set [3], the IC50 is 50 nM.
“Indium 2-desvinyl-2-formyl pyropheophorbide [Compound 27]”: the “% Cure (30 days)” value in data set [1] (drug dose 0.1 μm/Kg via tail vein in EYP, treatment 8 post injection) worked out at 90%. Besides, the λmax in data set [2] was 683. Besides, in data set [3], the IC50 worked out at 50 nM.
